Measured values from patent US20070224200A1, “Gm3 Synthase as a Therapeutic Target in Microvascular Complications of Diabetes” (priority 2004, published 2007).

Assays:
GM3 synthase [1] = test: GM3 synthase activity in RMC transfected with GM3 synthase siRNA; assay type: cell-based, rat
Procedure: (§1) At the end of the treatment, the cells were washed with PBS, incubated for 20 minutes at 4° C. in 50 μl of lysis buffer (20 mM sodium cacodylate, pH 6.6 (Sigma), 0.2% of Triton X-100, 1 mM EDTA, 10 μl/ml of protease inhibitors, Calbiochem, La Jolla, Calif., United States) and then collected by scraping. Four dishes of BRP (about 2-3×10^6 cells) and three dishes of RMC (about 3-6×10^6 cells) were pooled. The cell lysates were centrifuged at 10,000 g for 5 minutes and the proteins in the supernatants were used to measure the GM3 synthase activity. The glomerular residues were mechanically homogenised with a syringe in 25 mM Hepes containing 1 mM EDTA and 10 μl/ml of protease inhibitors. […]
To block the GM3 synthase activity, RMC were cultivated in 6-well culture plates up to 30% confluence and then transfected with an interfering RNA (siRNA) specific for GM3 synthase, which was designed against a rat cDNA sequence (Ambion, Huntingdon, UK) using an Oligofectamine reagent (Invitrogen Corporation). […] After 72 h of transfection, the GM3 synthase activity was measured on homogenates of transfected cells. The proliferation was then evaluated on the cells transfected with the siRNA. […] The cells were then washed twice with PBS and lysed in a Ripa lysis buffer and the proteins were measured in order to evaluate the cell proliferation.

RMC = test: Proliferation of siRNA-transfected RMC treated with AGE; assay type: cell-based, rat; settings: 400 nM siRNA, then 3 μM AGE 3 days, total proteins
Procedure: To block the GM3 synthase activity, RMC were cultivated in 6-well culture plates up to 30% confluence and then transfected with an interfering RNA (siRNA) specific for GM3 synthase, which was designed against a rat cDNA sequence (Ambion, Huntingdon, UK) using an Oligofectamine reagent (Invitrogen Corporation). The GM3 synthase antisense sequence used was GGGUUAUUCUGAACAUGUUtt (SEQ ID No: 5). In preliminary experiments, a dose-response study was carried out by transfecting the cells with increasing concentrations of siRNA (0-800 nM). After 72 h of transfection, the GM3 synthase activity was measured on homogenates of transfected cells. The proliferation was then evaluated on the cells transfected with the siRNA. For this purpose, 24 hours after transfection with 400 nM siRNA, the cells were treated with 3 μM BSA control or AGE (3 days). The cells were then washed twice with PBS and lysed in a Ripa lysis buffer and the proteins were measured in order to evaluate the cell proliferation.

pericytes (BRP) [2] = test: Treatment with exogenous gangliosides, proliferation of pericytes; assay type: cell-based, bovine; settings: 50 μM, 7 days, total proteins
Procedure: (§2) To evaluate the effect of exogenous gangliosides on the proliferation of BRP and RMC, the cells were cultivated in 96-well plates. Exogenous glycolipids GM3, GM2, GM1 and GD1a, glucosylceramide and lactosylceramide (Matreya) were added to the complete culture medium in a final concentration of 50 μM in the form of complexes with BSA in a 1:1 ratio in DMEM/10 mM Hepes, pH 7.4. At the end of the treatment, the cells were washed twice with PBS and lysed for 30 minutes at 37° C. in 50 μl of a Ripa lysis buffer (PBS 10 mM, NP40 1% (Pierce, Perbio Science, Brebières, France), sodium deoxycholate 0.5%, SDS 0.1%, protease inhibitors 10 μl/ml). As the number of cells in our experiments was correlated with the total protein concentrations (cf. FIG. 1), the total proteins were measured using the BCA protein test (Pierce) in order to evaluate the cell proliferation.

mesangial cells (RMC) = test: Treatment with exogenous gangliosides, proliferation of mesangial cells; assay type: cell-based, rat; settings: 50 μM, 4 days, total proteins
Procedure: as §2

pericytes (BRP) [3] = test: AGE effect on proliferation of pericytes (cell count, total proteins); assay type: cell-based, bovine; settings: 3 μM AGE, 7 days
Excerpt: Bovine retinal pericytes (BRP) were isolated from bovine retinal micro-vessels as described previously (Lecomte et al., 1996). Briefly, the retinas were obtained by dissection under sterile conditions from enucleated bovine eyes obtained from a local abattoir. After the contaminating pigmented epithelial cells of the retina had been removed, the retinas (2 per culture dish) were sliced into small pieces and homogenised in a Dounce homogeniser in a Hanks balanced saline solution (Ca^2+/Mg^2+-free oxygenated HBSS supplemented with Hepes 10 mM, pH 7.4, antibiotics 1%, bovine serum albumin (BSA, Sigma, Saint-Quentin Fallavier, France) 0.5%). […] The BRP cultures were 100% pure, as characterised by their polygonal irregular morphology with pseudopodia and their growth into non-apposed cells, and as evaluated by positive labelling for both α1-actin and a specific glycolipid antigen (3G5 antibody) and by negative labelling for the von Willebrand factor expressed in the endothelial cells (Lecomte et al., 1996). […]
(§3) At the end of the treatment, the cells were harvested with trypsin and the cell residues were washed twice with a phosphate buffered saline solution (iced PBS) (Sigma). For each sample, one aliquot of cells was counted using a haemocytometer in order to determine the number of cells. […]

[4] = tested on: renal mesangial cells (RMC); test: AGE effect on proliferation of renal mesangial cells (cell count, total proteins); assay type: cell-based, rat; settings: 3 μM AGE, 4 days
Excerpt: Rat renal mesangial cells (RMC) were obtained from purified glomeruli of young male Wistar rats (Charles River, l'Arbresle, France). Briefly, cortex fragments were isolated from rat kidneys freshly removed under sterile conditions. Small pieces were mechanically forced through a 230 μm mesh with HBSS buffer. The glomeruli, passed through this mesh, were then forced through a 73.7 μm mesh. Finally, they were placed on a 70 μm mesh and placed in 6 cm dishes covered with fibronectin (4 dishes for 2 renal glomeruli) in DMEM supplemented with 20% of foetal bovine serum, 1% of glutamine and 1% of penicillin/streptomycin. After the attachment period, the excrescence of RMC from glomeruli occurred after three weeks and the cells were then cultivated to the fifth passage in order to remove the residual epithelial and endothelial cells. The RMC are characterised by morphological criteria (star shape, wick shape when they are confluent) and by positive labelling with vimentin, smooth muscle α-actin and Thy-1 antigen. […]
as §3

[5] = tested on: gangliosides in pericytes (BRP); test: Ganglioside profile in pericytes treated with AGE (HPTLC); assay type: cell-based, bovine; settings: 3 μM AGE
Procedure: (§4) The AGE and the BSA control (final concentration of 3 μM) were added to the culture medium 24 hours after inoculation. Each cell type was treated for one passage (about 7 days for the BRP and 4 days for the RMC). The culture medium was replaced with a fresh medium every two days.
(§5) For metabolic labelling of the gangliosides, 0.2 μCi/ml or 1 μCi/ml of [^14C(U)]-D-galactose (329.5 mCi/mmol) (PerkinElmer Life Sciences, Boston, Mass.) was added to the culture medium overnight for the labelling experiments with a high specific activity (GM2 and GM1 measuring experiment). The cells (5-8×10^5 pericytes or 12-20×10^5 mesangial cells) were then harvested by trypsinisation and washed three times in PBS. The gangliosides were extracted from the cell residues by the method described by Bouchon et al. (Bouchon et al., 1990), modified by Natalizio et al. (Natalizio et al., 2002). Briefly, the cell residues were dispersed in 2 ml of chloroform (C)/methanol (M) (1:1, v/v), mixed vigorously and extracted overnight at 4° C. After centrifugation, the residues were extracted twice with 2 ml of the same solvent. The pooled extracts of total lipids were dried by evaporation and separated with the aid of a 1 mM C/M/PBS solution (10:10:7, v/v/v). The upper phases, containing the gangliosides, were then desalted on a C18 silica gel column (Waters Corporation, Milford, Mass.) and analysed by HPTLC (Merck, Darnstadt, Germany). The plates were developed in 0.2% C/M/CaCl2 (55:45:10, v/v/v). The gangliosides were visualised by autoradiography using a phosphorus screen and a Storm 820 (Molecular Dynamics, Amersham Pharmacia Biotech, Piscataway, United States) and by labelling with resorcinol (specific stain for gangliosides: resorcinol 0.3% (Sigma), CuSO4 0.03%, HCl 30%) using an Image Master VDS-CL (Amersham Pharmacia Biotech). Quantification was performed using an Image Quant (Molecular Dynamics). As GT1b was absent from the ganglioside profiles of both the BRP and the RMC, it was added to the samples as an internal standard prior to lipid extraction.

[6] = tested on: gangliosides in mesangial cells (RMC); test: Ganglioside profile in mesangial cells treated with AGE (HPTLC); assay type: cell-based, rat; settings: 3 μM AGE, resorcinol staining
Procedure: as §4, §5

GM3 synthase [7] = test: GM3 synthase activity in homogenates of pericytes treated with AGE; assay type: cell-based, bovine; settings: 3 μM AGE, 7 days, vs BSA control
Procedure: as §4
as §1, with “inhibitors. The homogenates were then centrifuged at 1000 g for 2 minutes and the postnuclear supernatant was used to measure the GM3 synthase activity. Equivalent amounts of proteins for each sample (about 500 μg for the cells and 100 μg for the glomeruli) were used to perform the test.” for “inhibitors.”

GM3 synthase [8] = test: GM3 synthase activity in homogenates of mesangial cells treated with AGE; assay type: cell-based, rat; settings: 3 μM AGE, 4 days, vs BSA control
Procedure: as §4
as §1, with “inhibitors. The homogenates were then centrifuged at 1000 g for 2 minutes and the postnuclear supernatant was used to measure the GM3 synthase activity. Equivalent amounts of proteins for each sample (about 500 μg for the cells and 100 μg for the glomeruli) were used to perform the test.” for “inhibitors.”

[9] = pericytes, resorcinol staining, vs BSA control

For “GGGUUAUUCUGAACAUGUUtt (guide GGGUUAUUCUGAACAUGUUTT; chemistry not given here) [GM3 synthase siRNA]”, the “inhibition of GM3 synthase activity” value (GM3 synthase [1]; RMC transfected with siRNA) was 50%, the “inhibition of GM3 synthase activity (in words)” value (GM3 synthase [1]; RMC, preliminary experiments, siRNA 0-800 nM, 72 h) was “effectively inhibited” and the “effects of AGE on the proliferation of the RMC” value (RMC) was “partially inhibited”.

glucosylceramide was tested, and the “effect on proliferation of pericytes (in words)” value (“effect … of pericytes (in words)” for short) (pericytes (BRP) [2]) was “no effect” and the “effect on proliferation of mesangial cells (in words)” value (mesangial cells (RMC)) was “no effect”.

With lactosylceramide the “effect … of pericytes (in words)” value (pericytes (BRP) [2]) was “no effect” and the “effect on proliferation of mesangial cells (in words)” value (mesangial cells (RMC)) was “no effect”.

For “AGE: prepared by incubating bovine serum albumin with 100 mM methylglyoxal at 37° C. for 50 hours”, the “reduction of the number of pericytes” value (pericytes (BRP) [3]; cell count, vs BSA control) was 33%, the total proteins (pericytes (BRP) [3]; pericytes) was “decreased in correlation with the number of cells” and the “reduction of the number of mesangial cells” value ([4]; cell count, vs BSA control) was 40%. The total proteins ([4]; mesangial cells) was “decreased in correlation with the number of cells”, the “increase in GM2” value ([5]; BRP, [14C]-D-galactose labelling, autoradiography) was 55% and the “increase in series a ganglioside GM1” value [5, 9] was “about 40%”. The “increase in series a ganglioside GM3” value [5, 9] was “about 40%”, the “reduction of series b ganglioside GD3” value [5, 9] was 24% and the GD1a levels [6] was “not affected”. For the same substance, the “increase in GM3” value ([6]; vs BSA control) was 33%, the “reduction of GD3” value ([6]; vs BSA control) was 30% and the “increase of GM3 synthase activity (factor)” value (GM3 synthase [7]) was “about 1.8”. The “increase of GM3 synthase activity (factor)” value (GM3 synthase [8]) was “about 1.5”.

For “α-N-acetyl-neuraminyl-2,3-β-D-galactosyl-1,4-β-D-glucosylceramide [GM3]”, the “effect … of pericytes (in words)” value (pericytes (BRP) [2]) was “weakly inhibited” and the “effect on proliferation of mesangial cells (in words)” value (mesangial cells (RMC)) was “no significant effect”.
